Organism: Rattus norvegicus
Test: DrugMatrix - Regimen: Daily Repeat
Type: toxicity, organism-based, Sprague-Dawley
Design: regimen Daily Repeat, gender Male, age 6-8 weeks
Conditions: in vivo, iv, vehicle 100 % SALINE; for ABSOLUTE BASOPHIL / ABSOLUTE EOSINOPHIL / ABSOLUTE LYMPHOCYTE / ABSOLUTE MONOCYTE / ABSOLUTE SEGMENTED NEUTROPHIL / BASOPHIL / EOSINOPHIL / ERYTHROCYTE COUNT / HEMATOCRIT / HEMOGLOBIN / LEUKOCYTE COUNT / LYMPHOCYTE / MEAN CORPUSCULAR HEMOGLOBIN / MEAN CORPUSCULAR HEMOGLOBIN CONCENTRATION / MEAN CORPUSCULAR VOLUME / MONOCYTE / NEUTROPHIL / NUCLEATED RED BLOOD CELLS / PLATELET COUNT: tissue Blood; for ALANINE AMINOTRANSFERASE / ALBUMIN / ALKALINE PHOSPHATASE / ASPARTATE AMINOTRANSFERASE / BLOOD UREA NITROGEN / CARBON DIOXIDE / CHLORIDE / CHOLESTEROL / CREATINE PHOSPHOKINASE / CREATININE / GLUCOSE / LACTATE DEHYDROGENASE / LIPASE / PHOSPHORUS / POTASSIUM / SODIUM / TOTAL BILIRUBIN / TOTAL PROTEIN / URIC ACID: tissue Plasma
[1] = 7 mg/kg, 120 h, dose level Low, time 5 day
[2] = 41 mg/kg, 72 h, dose level High, time 3 day
[3] = 41 mg/kg, 120 h, dose level High, time 5 day

CC(=O)N[C@@H]1[C@H](Oc2c3cc4cc2Oc2ccc(cc2Cl)[C@@H](O[C@@H]2O[C@@H](CO)[C@@H](O)[C@H](O)[C@@H]2NC(C)=O)[C@@H]2NC(=O)[C@H](NC(=O)[C@@H]4NC(=O)[C@H]4NC(=O)[C@@H](Cc5ccc(c(Cl)c5)O3)NC(=O)[C@H](N)c3ccc(O)c(c3)Oc3cc(O)cc4c3)c3ccc(O)c(c3)-c3c(O[C@H]4O[C@H](CO)[C@@H](O)[C@@H](O)[C@@H]4O)cc(O)cc3[C@@H](C(=O)O)NC2=O)O[C@@H](CO)[C@@H](O)[C@@H]1O
ABSOLUTE BASOPHIL [1]: 0 CELLS/uL
ABSOLUTE EOSINOPHIL [1]: 166 CELLS/uL
ABSOLUTE LYMPHOCYTE [1]: 15568 CELLS/uL
ABSOLUTE MONOCYTE [1]: 230.67 CELLS/uL
ABSOLUTE SEGMENTED NEUTROPHIL [1]: 1568.67 CELLS/uL
BASOPHIL [1]: 0%
EOSINOPHIL [1]: 1%
ERYTHROCYTE COUNT [1]: 5.77 x10E6/uL
HEMATOCRIT [1]: 36.27%
HEMOGLOBIN [1]: 13.63 G/DL
LEUKOCYTE COUNT [1]: 17.53 x10E3/uL
LYMPHOCYTE [1]: 88.67%
MEAN CORPUSCULAR HEMOGLOBIN [1]: 23.67 pg
MEAN CORPUSCULAR HEMOGLOBIN CONCENTRATION [1]: 37.57 G/DL
MEAN CORPUSCULAR VOLUME [1]: 62.97 fL
MONOCYTE [1]: 1.33%
NEUTROPHIL [1]: 9%
NUCLEATED RED BLOOD CELLS [1]: 0 /100WBC
PLATELET COUNT [1]: 1190.67 x10E3/uL
ALANINE AMINOTRANSFERASE [1]: 40.67 u/L
ALBUMIN [1]: 4.23 G/DL
ALKALINE PHOSPHATASE [1]: 395 u/L
ASPARTATE AMINOTRANSFERASE [1]: 84.33 u/L
BLOOD UREA NITROGEN [1]: 19.33 mg/dL
CARBON DIOXIDE [1]: 24 mmol/L
CHLORIDE [1]: 106.67 MEQ/L
CHOLESTEROL [1]: 59.33 mg/dL
CREATINE PHOSPHOKINASE [1]: 389.67 u/L
CREATININE [1]: 0.18 mg/dL
GLUCOSE [1]: 149 mg/dL
LACTATE DEHYDROGENASE [1]: 466.67 u/L
LIPASE [1]: 8.33 u/L
PHOSPHORUS [1]: 11.47 mg/dL
POTASSIUM [1]: 5.99 MEQ/L
SODIUM [1]: 144.47 MEQ/L
TOTAL BILIRUBIN [1]: 0.2 mg/dL
TOTAL PROTEIN [1]: 6.03 G/DL
URIC ACID [1]: 1.17 mg/dL
ABSOLUTE BASOPHIL [2]: 0 CELLS/uL
ABSOLUTE EOSINOPHIL [2]: 126.67 CELLS/uL
ABSOLUTE LYMPHOCYTE [2]: 16661.33 CELLS/uL
ABSOLUTE MONOCYTE [2]: 515.67 CELLS/uL
ABSOLUTE SEGMENTED NEUTROPHIL [2]: 1929.67 CELLS/uL
BASOPHIL [2]: 0%
EOSINOPHIL [2]: 0.67%
ERYTHROCYTE COUNT [2]: 5.53 x10E6/uL
HEMATOCRIT [2]: 35.03%
HEMOGLOBIN [2]: 13.17 G/DL
LEUKOCYTE COUNT [2]: 19.23 x10E3/uL
LYMPHOCYTE [2]: 86.67%
MEAN CORPUSCULAR HEMOGLOBIN [2]: 23.83 pg
MEAN CORPUSCULAR HEMOGLOBIN CONCENTRATION [2]: 37.6 G/DL
MEAN CORPUSCULAR VOLUME [2]: 63.4 fL
MONOCYTE [2]: 2.67%
NEUTROPHIL [2]: 10%
NUCLEATED RED BLOOD CELLS [2]: 0 /100WBC
PLATELET COUNT [2]: 1404 x10E3/uL
ALANINE AMINOTRANSFERASE [2]: 41.67 u/L
ALBUMIN [2]: 4.13 G/DL
ALKALINE PHOSPHATASE [2]: 271.33 u/L
ASPARTATE AMINOTRANSFERASE [2]: 67.33 u/L
BLOOD UREA NITROGEN [2]: 18.33 mg/dL
CARBON DIOXIDE [2]: 27 mmol/L
CHLORIDE [2]: 102 MEQ/L
CHOLESTEROL [2]: 61.67 mg/dL
CREATINE PHOSPHOKINASE [2]: 181 u/L
CREATININE [2]: 0.21 mg/dL
GLUCOSE [2]: 153.67 mg/dL
LACTATE DEHYDROGENASE [2]: 125.67 u/L
LIPASE [2]: 8.33 u/L
PHOSPHORUS [2]: 11.33 mg/dL
POTASSIUM [2]: 6.69 MEQ/L
SODIUM [2]: 143.47 MEQ/L
TOTAL BILIRUBIN [2]: 0.2 mg/dL
TOTAL PROTEIN [2]: 5.87 G/DL
URIC ACID [2]: 1.37 mg/dL
ABSOLUTE BASOPHIL [3]: 0 CELLS/uL
ABSOLUTE EOSINOPHIL [3]: 0 CELLS/uL
ABSOLUTE LYMPHOCYTE [3]: 12482 CELLS/uL
ABSOLUTE MONOCYTE [3]: 440.67 CELLS/uL
ABSOLUTE SEGMENTED NEUTROPHIL [3]: 1610.67 CELLS/uL
BASOPHIL [3]: 0%
EOSINOPHIL [3]: 0%
ERYTHROCYTE COUNT [3]: 5.88 x10E6/uL
HEMATOCRIT [3]: 36.7%
HEMOGLOBIN [3]: 13.8 G/DL
LEUKOCYTE COUNT [3]: 14.53 x10E3/uL
LYMPHOCYTE [3]: 86%
MEAN CORPUSCULAR HEMOGLOBIN [3]: 23.47 pg
MEAN CORPUSCULAR HEMOGLOBIN CONCENTRATION [3]: 37.6 G/DL
MEAN CORPUSCULAR VOLUME [3]: 62.47 fL
MONOCYTE [3]: 3%
NEUTROPHIL [3]: 11%
NUCLEATED RED BLOOD CELLS [3]: 0 /100WBC
PLATELET COUNT [3]: 1300.33 x10E3/uL
ALANINE AMINOTRANSFERASE [3]: 57.67 u/L
ALBUMIN [3]: 4.3 G/DL
ALKALINE PHOSPHATASE [3]: 395 u/L
ASPARTATE AMINOTRANSFERASE [3]: 79.33 u/L
BLOOD UREA NITROGEN [3]: 18.67 mg/dL
CARBON DIOXIDE [3]: 29.67 mmol/L
CHLORIDE [3]: 102.33 MEQ/L
CHOLESTEROL [3]: 69.67 mg/dL
CREATINE PHOSPHOKINASE [3]: 275 u/L
CREATININE [3]: 0.19 mg/dL
GLUCOSE [3]: 177 mg/dL
LACTATE DEHYDROGENASE [3]: 229 u/L
LIPASE [3]: 9 u/L
PHOSPHORUS [3]: 13.2 mg/dL
POTASSIUM [3]: 6.79 MEQ/L
SODIUM [3]: 148.17 MEQ/L
TOTAL BILIRUBIN [3]: 0.17 mg/dL
TOTAL PROTEIN [3]: 6.3 G/DL
URIC ACID [3]: 1.83 mg/dL

From ChEMBL document CHEMBL3885881, “DrugMatrix”
